For 25 compounds, T/C results are on record in PubChem BioAssay AID340 (DTP/NCI, 2004).

Values joined by “and” are separate entries in the source; they are usually repeats but may differ in a detail not shown here. Equal values may be shown once. Toxic doses and inconclusive results are not listed.

The test system of the experiment is CD2F1 mice, ip reticulum cell sarcoma, survival T/C. Nature of the experiment: NCI In Vivo Anticancer Drug Screen. Data for tumor model Reticulum Cell Sarcoma (Kelley Mouse) (intraperitoneal) in CD2F1 (CDF1) mice. As to conditions: endpoint: median survival time, higher = longer survival. As to the method: The antitumor activity of compounds was measured in mice bearing transplantable tumors. Survival or tumor size were measured and the results are expressed as the measurement made in the treated group (T) divided by the measurement made in the vehicle treated control group (C). The tumor model used in this assay is Reticulum Cell Sarcoma (Kelley Mouse) (intraperitoneal) in CD2F1 (CDF1) mice

The mark [1] stands for this setting: dose: 0.25 mg/kg/injection, schedule: Q01DX010 (ip), vehicle: saline.
[2] abbreviates: dose: 0.5 mg/kg/injection, schedule: Q01DX010 (ip), vehicle: saline.
[3] abbreviates: dose: 1.0 mg/kg/injection, schedule: Q01DX010 (ip), vehicle: saline.
Setting [4] is: dose: 2.0 mg/kg/injection, schedule: Q01DX010 (ip), vehicle: saline.
Where [5] appears, read: dose: 2.5 mg/kg/injection, schedule: Q01DX010 (ip), vehicle: saline.
Setting [6] is: dose: 5.0 mg/kg/injection, schedule: Q01DX010 (ip), vehicle: saline.
Setting [7] is: dose: 10.0 mg/kg/injection, schedule: Q01DX010 (ip), vehicle: saline.
The mark [8] stands for this setting: dose: 7.5 mg/kg/injection, schedule: Q01DX010 (ip), vehicle: saline.
Where [9] appears, read: dose: 15.0 mg/kg/injection, schedule: Q01DX010 (ip), vehicle: saline.
[10] abbreviates: dose: 30.0 mg/kg/injection, schedule: Q01DX010 (ip), vehicle: saline.
The mark [11] stands for this setting: dose: 4.0 mg/kg/injection, schedule: Q01DX010 (ip), vehicle: other.
[12] abbreviates: dose: 8.0 mg/kg/injection, schedule: Q01DX010 (ip), vehicle: other.
Where [13] appears, read: dose: 16.0 mg/kg/injection, schedule: Q01DX010 (ip), vehicle: other.
The mark [14] stands for this setting: dose: 32.0 mg/kg/injection, schedule: Q01DX010 (ip), vehicle: other.
[15] abbreviates: dose: 60.0 mg/kg/injection, schedule: Q01DX010 (ip), vehicle: saline.
The mark [16] stands for this setting: dose: 6.25 mg/kg/injection, schedule: Q01DX010 (ip), vehicle: saline.
Setting [17] is: dose: 12.5 mg/kg/injection, schedule: Q01DX010 (ip), vehicle: saline.
[18] abbreviates: dose: 50.0 mg/kg/injection, schedule: Q01DX010 (ip), vehicle: saline.
[19] abbreviates: dose: 100.0 mg/kg/injection, schedule: Q01DX010 (ip), vehicle: saline.
The mark [20] stands for this setting: dose: 62.5 mg/kg/injection, schedule: Q01DX010 (ip), vehicle: saline.
The mark [21] stands for this setting: dose: 125.0 mg/kg/injection, schedule: Q01DX010 (ip), vehicle: saline.
Where [22] appears, read: dose: 250.0 mg/kg/injection, schedule: Q01DX010 (ip), vehicle: saline.
The mark [23] stands for this setting: dose: 25.0 mg/kg/injection, schedule: Q01DX010 (ip), vehicle: saline.
[24] abbreviates: dose: 1.25 mg/kg/injection, schedule: Q01DX010 (ip), vehicle: saline.
The mark [25] stands for this setting: dose: 8.0 mg/kg/injection, schedule: Q01DX010 (ip), vehicle: saline.
Where [26] appears, read: dose: 16.0 mg/kg/injection, schedule: Q01DX010 (ip), vehicle: saline.
The mark [27] stands for this setting: dose: 32.0 mg/kg/injection, schedule: Q01DX010 (ip), vehicle: saline.
The mark [28] stands for this setting: dose: 64.0 mg/kg/injection, schedule: Q01DX010 (ip), vehicle: saline.
[29] abbreviates: dose: 500.0 mg/kg/injection, schedule: Q01DX010 (ip), vehicle: saline.
The mark [30] stands for this setting: dose: 4.0 mg/kg/injection, schedule: Q01DX010 (ip), vehicle: saline.

As for `N#C[C@@H]1C2C=CC(CC2)[C@H]1C#N`, the T/C under setting [1] was 97 % of control; the T/C under setting [2] is 102 % of control and 105 % of control; the T/C under setting [3] was 88 % of control and 94 % of control; the T/C under setting [4] is 97 % of control and 100 % of control.
`S=P(N1CCOCC1)(N1CC1)N1CC1`: the T/C runs as follows: under setting [5], 100 % of control and 103 % of control; under setting [6], 100 % of control and 106 % of control; under setting [7], 100 % of control and 106 % of control.
For the compound `CN(C)[C@@H]1C(=O)C(C(N)=O)=C(O)[C@@]2(O)C(=O)C3=C(O)c4c(O)cccc4C[C@H]3C[C@@H]12`, the T/C reads like this: (dose: 3.75 mg/kg/injection, schedule: Q01DX010 (ip), vehicle: saline) 100 % of control; under setting [8], 105 % of control and 107 % of control; under setting [9], 100 % of control and 102 % of control; under setting [10], 94 % of control and 100 % of control.
Take `O=C(Nc1ccc(C2=NCCN2)cc1)c1ccc(C(=O)Nc2ccc(C3=NCCN3)cc2)cc1`: the T/C under setting [11] was 168 % of control; the T/C under setting [12] is 277 % of control and 302 % of control; the T/C under setting [13] was 242 % of control and 302 % of control; the T/C under setting [14] is 166 % of control and 231 % of control; the T/C (dose: 64.0 mg/kg/injection, schedule: Q01DX010 (ip), vehicle: other) was 168 % of control.
For `Clc1ncnc2nc[nH]c12`, the T/C reads like this: under setting [8], 94 % of control and 111 % of control; under setting [9], 94 % of control and 100 % of control; under setting [10], 97 % of control and 102 % of control; under setting [15], 100 % of control and 105 % of control.
With `O=C(O)CCCc1ccc(N(CCCl)CCCl)cc1`, the T/C by setting is: under setting [16], 103 % of control; under setting [17], 106 % of control.
In the case of `CS(=O)(=O)OCCC(=O)N1CCN(C(=O)CCOS(C)(=O)=O)CC1`, the T/C is, setting by setting: under setting [17], 111 % of control and 114 % of control; under setting [18], 114 % of control; under setting [19], 114 % of control.
On to `COc1cc(-c2ccc(Nc3ccccc3C(=O)O)c(OC)c2)ccc1Nc1ccccc1C(=O)O`, for which the T/C is 105 % of control under setting [18] and 100 % of control under setting [19].
For `COc1ccc2c(c1OC)C(=O)O[C@@H]2[C@H]1c2c(cc3c(c2OC)OCO3)CCN1C`, the T/C is 100 % of control (dose: 7.8 mg/kg/injection, schedule: Q01DX010 (ip), vehicle: saline); 100 % of control (dose: 15.6 mg/kg/injection, schedule: Q01DX010 (ip), vehicle: saline); 97 % of control and 102 % of control (dose: 31.3 mg/kg/injection, schedule: Q01DX010 (ip), vehicle: saline); 91 % of control and 97 % of control under setting [20]; 91 % of control under setting [21]; 91 % of control under setting [22].
In the case of `O=[n+]1c2c(n([O-])c3ccccc31)-c1cccc3cccc-2c13`, the T/C was 92 % of control and 100 % of control under setting [23]; 92 % of control and 106 % of control under setting [18]; 100 % of control and 103 % of control under setting [19]; 92 % of control and 100 % of control (dose: 200.0 mg/kg/injection, schedule: Q01DX010 (ip), vehicle: saline).
As for `Nc1nc(=S)c2[nH]cnc2[nH]1`, the T/C under setting [24] was 150 % of control and 170 % of control; the T/C under setting [6] is 105 % of control and 120 % of control; the T/C under setting [7] was 105 % of control and 108 % of control.
`CS(=O)(=O)OCCCCOS(C)(=O)=O`: the T/C under setting [16] was 94 % of control and 105 % of control; the T/C under setting [17] is 97 % of control and 108 % of control; the T/C under setting [23] was 100 % of control and 102 % of control; the T/C under setting [18] is 100 % of control and 105 % of control.
`O=C(Nc1ccc(C2=NCCN2)cc1)c1cccc(C(=O)Nc2ccc(C3=NCCN3)cc2)c1`: the T/C is 121 % of control under setting [25]; 121 % of control under setting [26]; 157 % of control under setting [27]; 186 % of control and 210 % of control under setting [28].
As for `COC(=O)[C@@H]1c2cc3c(c(O)c2[C@@H](OC2OC(C)C(OC)C(C)(OC)C2OC)C[C@]1(C)O)C(=O)c1c(O)cc2c(c1C3=O)O[C@H]1O[C@]2(C)[C@H](O)[C@@H](N(C)C)[C@@H]1O` (stereo partly drawn), the T/C by setting is: (dose: 63.0 micrograms/kg/injection, schedule: Q01DX010 (ip), vehicle: saline) 103 % of control; (dose: 125.0 micrograms/kg/injection, schedule: Q01DX010 (ip), vehicle: saline) 103 % of control and 105 % of control; (dose: 250.0 micrograms/kg/injection, schedule: Q01DX010 (ip), vehicle: saline) 103 % of control and 105 % of control; (dose: 500.0 micrograms/kg/injection, schedule: Q01DX010 (ip), vehicle: saline) 100 % of control; (dose: 1000.0 micrograms/kg/injection, schedule: Q01DX010 (ip), vehicle: saline) 94 % of control.
On to `CC(=O)N(C)C`, for which the T/C is, setting by setting: under setting [20], 100 % of control and 107 % of control; under setting [21], 95 % of control and 102 % of control; under setting [22], 97 % of control and 105 % of control; under setting [29], 90 % of control and 100 % of control.
Turning to `C[C@H]1C(=O)O[C@@H]2CCN3CC=C(COC(=O)[C@](C)(O)[C@@]1(C)O)[C@H]23`, the T/C was 103 % of control (dose: 3.13 mg/kg/injection, schedule: Q01DX010 (ip), vehicle: saline); 100 % of control under setting [16]; 103 % of control under setting [17]; 121 % of control under setting [23].
Turning to `O=C(Nc1ccc(C2=NCCN2)cc1)c1ccc(C(=O)Nc2ccc(C3=NCCN3)cc2)c(Cl)c1`, the T/C runs as follows: (dose: 2.0 mg/kg/injection, schedule: Q01DX010 (ip), vehicle: other) 111 % of control and 115 % of control; under setting [11], 113 % of control; under setting [12], 168 % of control; under setting [13], 151 % of control and 197 % of control; under setting [14], 95 % of control.
As to `N#CCSc1ncnc2nc[nH]c12`, the T/C by setting is: under setting [8], 100 % of control; under setting [9], 103 % of control; under setting [10], 100 % of control and 103 % of control; under setting [15], 103 % of control and 106 % of control.
Consider `c1ccc(CNc2ncnc3[nH]ncc23)cc1`, for which the T/C runs as follows: under setting [25], 100 % of control and 105 % of control; under setting [26], 100 % of control and 105 % of control; under setting [27], 100 % of control and 105 % of control; under setting [28], 95 % of control and 97 % of control.
Take `Nc1nc(F)nc2c1ncn2C1OC(CO)C(O)C1O` (stereo not drawn): the T/C under setting [1] was 100 % of control; the T/C under setting [2] is 100 % of control and 105 % of control; the T/C under setting [3] is 91 % of control and 103 % of control; the T/C under setting [4] is 100 % of control and 105 % of control; the T/C under setting [30] was 88 % of control.
`O=c1cn[nH]c(=O)[nH]1`: the T/C is 92 % of control and 100 % of control under setting [20]; 95 % of control and 100 % of control under setting [21]; 97 % of control under setting [22]; 90 % of control and 102 % of control under setting [29].
On to `CC/C(=C(/CC)c1ccc(O)cc1)c1ccc(O)cc1`, for which the T/C is, setting by setting: (dose: 12.5 mg/kg/injection, schedule: Q01DX010 (sc), vehicle: steriod suspending solution) 105 % of control and 110 % of control; (dose: 25.0 mg/kg/injection, schedule: Q01DX010 (sc), vehicle: steriod suspending solution) 105 % of control; (dose: 50.0 mg/kg/injection, schedule: Q01DX010 (sc), vehicle: steriod suspending solution) 100 % of control and 110 % of control; (dose: 100.0 mg/kg/injection, schedule: Q01DX010 (sc), vehicle: steriod suspending solution) 105 % of control and 115 % of control.
`CS(=O)(=O)OCCCl`: the T/C runs as follows: (dose: 18.8 mg/kg/injection, schedule: Q01DX010 (ip), vehicle: saline) 103 % of control; (dose: 37.5 mg/kg/injection, schedule: Q01DX010 (ip), vehicle: saline) 106 % of control and 115 % of control; (dose: 75.0 mg/kg/injection, schedule: Q01DX010 (ip), vehicle: saline) 100 % of control.
Consider `O=C(Nc1ccc(NC2=NCCN2)cc1)c1ccc(C(=O)Nc2ccc(NC3=NCCN3)cc2)cc1`, for which the T/C runs as follows: under setting [4], 120 % of control and 121 % of control; under setting [30], 168 % of control; under setting [25], 167 % of control and 200 % of control; under setting [26], 107 % of control and 121 % of control.
Consider `O=C(O)c1[nH]c(=O)[nH]c(=O)c1F`, for which the T/C under setting [24] was 91 % of control; the T/C under setting [5] was 94 % of control; the T/C under setting [6] is 97 % of control and 100 % of control; the T/C under setting [7] is 94 % of control and 100 % of control.
